# Reference: article PMC3629974 (Journal of nuclear medicine : official publication, Society …, 2011)
# Key:
# [1] = target: human PKR1 (Homo sapiens, UniProt Q8TCW9); assay: Competition cell-binding assay with ^125I-MIT-1 on CHO-PKR1 cells; conditions: PC-10 binding IC50 vs PC-7 functional IC50 (33 nM)
# [2] = system: CHO-PKR1 cells; assay: Cell uptake, internalization and efflux of ^18F-PC-10; type: cell-based, Chinese hamster
# [3] = Ex vivo biodistribution in CFA-treated mice; set-up: species or system C57BL/6 mice; conditions: 2 h after injection
# [4] = system: CFA-induced inflamed paw (PKR1-expressing); assay: Small-animal PET of CFA-induced inflammatory pain model; type: in vivo, C57BL/6 mice
# Sequence of human PKR1 (Q8TCW9 whole entry): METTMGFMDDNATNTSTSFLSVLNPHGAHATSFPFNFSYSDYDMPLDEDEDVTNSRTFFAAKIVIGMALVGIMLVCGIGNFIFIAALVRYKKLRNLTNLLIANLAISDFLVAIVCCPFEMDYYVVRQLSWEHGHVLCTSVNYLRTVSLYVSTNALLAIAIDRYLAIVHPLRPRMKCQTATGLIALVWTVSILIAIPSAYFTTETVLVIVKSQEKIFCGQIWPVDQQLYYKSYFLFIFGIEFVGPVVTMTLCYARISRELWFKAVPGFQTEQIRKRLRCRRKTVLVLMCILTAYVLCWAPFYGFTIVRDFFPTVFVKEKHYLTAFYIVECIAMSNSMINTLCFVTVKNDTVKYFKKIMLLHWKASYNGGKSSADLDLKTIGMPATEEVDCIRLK
binding affinity to PKR1 lower than functional IC50 of PC-7 [1] [fold],activity in blood [3] [%ID/g],uptake in bone [3] [%ID/g],uptake in kidneys [3] [%ID/g],uptake in liver [3] [%ID/g],uptake in salivary gland [3] [%ID/g],"uptake in control paw ([4]; PET, 2 h after injection) [%ID/g]",Compound,time at which cell uptake reached a plateau ([2]; 37°C) [h],"time at which internalization reached a plateau ([2]; 37°C, stable up to 2 h) [h]",part of observed uptake due to internalization ([2]; acid buffer pH 2.8 wash),time after medium replacement at which half of the activity was unbound (efflux) ([2]; after 2 h loading) [min],time at which efflux reached a plateau ([2]; after medium replacement) [h],"decrease of uptake in inflamed paw by blocking ([4]; 1 h after injection, coinjected with excess PC-7)"
3,,,,,,,"COc1ccc(Cn2c(NCCNC(=N)NC(=O)c3ccc(F)cc3)nc(=O)n(Cc3ccc(F)cc3)c2=O)cc1 [PC-10, N-(4-fluoro-benzoyl)-N′-{2-[5-(4-fluoro-benzyl)-1-(4-methoxy-benzyl)-4,6-dioxo-1,4,5,6-tetrahydro-[1,3,5]triazin-2-ylamino]-ethyl}-guanidine]",,,,,,
,0.22 ± 0.05,0.69 ± 0.12,5.26 ± 1.06,3.80 ± 1.14,3.05 ± 1.10,0.13 ± 0.01,"COc1ccc(Cn2c(NCCNC(=N)NC(=O)c3ccc([18F])cc3)nc(=O)n(Cc3ccc(F)cc3)c2=O)cc1 [^18F-PC-10, N-(4-^18F-fluoro-benzoyl)-N′-{2-[5-(4-fluoro-benzyl)-1-(4-methoxy-benzyl)-4,6-dioxo-1,4,5,6-tetrahydro-[1,3,5]triazin-2-ylamino]-ethyl}-guanidine]",0.5,0.5,Approximately half,≤ 15,1,approximately 70%
